The subject of assay [1] is endogenous NAMPT in U2OS cells. Put plainly: Cellular NAD+ modulation assay (NAD/NADH-Glo, U2OS cells). The class given is cell-based. As to conditions: Homo sapiens; for maximal fold induction: read-out: Cellular Emax. An outline of the steps:
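Endogenous NAMPT stimulation in U2OS cells treated with compound dilution series for 24 h at 37 °C. Cells lysed with DTAB base, acid-treated 15 min at 60 °C, neutralized, NAD+ read by NAD/NADH-Glo luminescence after 40 min at room temperature. EC50 and Emax (fold over DMSO) derived.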

For assay [2], the target named is T1, human enzyme NAMPT (full length) (Homo sapiens, UniProt P43490).
T1 construct: human enzyme NAMPT (full length)
T1 sequence (P43490 whole entry): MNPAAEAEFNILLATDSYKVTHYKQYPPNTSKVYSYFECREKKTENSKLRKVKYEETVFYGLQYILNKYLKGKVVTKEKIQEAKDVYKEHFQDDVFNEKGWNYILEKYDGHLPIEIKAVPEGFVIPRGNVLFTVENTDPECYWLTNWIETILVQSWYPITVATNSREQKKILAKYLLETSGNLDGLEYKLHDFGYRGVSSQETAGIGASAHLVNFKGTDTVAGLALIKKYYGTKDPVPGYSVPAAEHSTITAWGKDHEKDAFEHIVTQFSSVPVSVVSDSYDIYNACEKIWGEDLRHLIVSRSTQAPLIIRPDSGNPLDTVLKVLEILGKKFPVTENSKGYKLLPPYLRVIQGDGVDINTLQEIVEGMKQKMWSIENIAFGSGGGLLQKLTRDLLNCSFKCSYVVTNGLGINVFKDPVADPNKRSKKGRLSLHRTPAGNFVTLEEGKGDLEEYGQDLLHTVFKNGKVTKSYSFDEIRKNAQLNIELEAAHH
Put plainly: NMN fluorescence biochemical assay (stimulation of NMN synthesis by NAMPT). As to conditions: for EC50: concentration giving half-maximal activation, read-out: Enzymatic EC50; for Enzymatic Emax: fold change of maximal activation compared to DMSO. An outline of the steps:
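Full-length human NAMPT (100 nM) was preincubated 15 min at 37 °C with compound in 50 mM Tris-HCl pH 7.5, 10 mM MgCl2, 2 mM DTT, then reacted 1 h at 37 °C with 50 μM NAM, 100 μM PRPP, 4 mM ATP (stated solution concentrations). NMN was derivatised with acetophenone/KOH then formic acid and read at Ex/Em 382/445 nm; EC50 and Emax (fold over DMSO) reported.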

The mark [3] stands for this setting: 24 hours incubation, cellular NAD+.
[4] abbreviates: NMN fluorescence assay, purified human NAMPT 100 nM.
The mark [5] stands for this setting: 24 hours incubation with compound.
The mark [6] stands for this setting: NMN synthesis by purified human NAMPT (100 nM).

Like-named read-outs stand apart in the source and are kept apart here. Some results are limits rather than exact numbers.

The EC50 is the midpoint of the concentration-response curve. Regarding `Cn1ncc(Cl)c1CC1(C)c2cc(Br)ccc2C(=O)N1Cc1ccc2[nH]c(=O)oc2c1` (stereo not shown) [Compound 419, 6-((6-bromo-1-((4-chloro-1-methyl-1H-pyrazol-5-yl)methyl)-1-methyl-3-oxoisoindolin-2-yl)methyl)benzo[d]oxazol-2(3H)-one], in assay [1] (setting [3]), the EC50 was less than 0.5 µM and the maximal fold induction is more than 1.5. The EC50 in assay [2] (setting [4]) is less than 0.5 µM. Besides, the “Enzymatic Emax” value in assay [2] is “A (A>3)”.
Regarding `Cn1nc(CN2CCC2)c(Cl)c1CC1c2ccccc2C(=O)N1CC1CC2(CNC(=O)O2)C1` (stereo not shown) [Compound 508, 2-((1-((3-(azetidin-1-ylmethyl)-4-chloro-1-methyl-1H-pyrazol-5-yl)methyl)-3-oxoisoindolin-2-yl)methyl)-5-oxa-7-azaspiro[3.4]octan-6-one], in assay [1] (setting [3]), the EC50 lay within 0.5 to 5 µM and the maximal fold induction was more than 1.5. For the same compound, the EC50 in assay [2] (setting [4]) is less than 0.5 µM. In assay [2], the “Enzymatic Emax” value is on record as “B (3≥B>2)”.
The matching figures for `Cn1ncc(Cl)c1CC1c2cc(Cl)ccc2C(=O)N1Cc1ccc2[nH]nnc2c1` (stereo not shown) [Compound 354, 2-((1H-benzo[d][1,2,3]triazol-5-yl)methyl)-5-chloro-3-((4-chloro-1-methyl-1H-pyrazol-5-yl)methyl)isoindolin-1-one]: less than 0.5 µM, more than 1.5, less than 0.5 µM and “A (A>3)”.
For `Cn1ncc(Cl)c1CC1c2cc(CN3CCOCC3)ccc2C(=O)N1CC1CC2(CNC(=O)O2)C1` (stereo not shown) [Compound 461, 2-((3-((4-chloro-1-methyl-1H-pyrazol-5-yl)methyl)-5-(morpholinomethyl)-1-oxoisoindolin-2-yl)methyl)-5-oxa-7-azaspiro[3.4]octan-6-one], in that order: 0.5 to 5 µM, more than 1.5, 0.5 to 5 µM and “B (3≥B>2)”.
`CC1c2cc(CN3CC4(CNC4)C3)ccc2C(=O)N1Cc1ccc2[nH]c(=O)oc2c1` (stereo not shown) [Compound 115, 6-((5-((2,6-diazaspiro[3.3]heptan-2-yl)methyl)-3-methyl-1-oxoisoindolin-2-yl)methyl) benzo[d]oxazol-2(3H)-one]: in assay [1] (setting [5]), the EC50 lay in the range of 5 to 50 µM and the maximal fold induction is 1.2 to 1.5. The EC50 in assay [2] (setting [6]) was not below 5 µM. The “Enzymatic Emax” value in assay [2] is “A (A>3)”.
For `O=C1c2ccccc2C(CC2CCCCC2)N1Cc1ccc2[nH]c(=O)oc2c1` (stereo not shown) [Compound 167, 6-((1-(cyclohexylmethyl)-3-oxoisoindolin-2-yl)methyl)benzo[d]oxazol-2(3H)-one], in that order: 0.5 to 5 µM, 1.2 to 1.5, 0.5 to 5 µM and “B (3≥B>2)”.
`Cn1nc(C#N)c(CC2c3ccccc3C(=O)N2Cc2ccc3[nH]nnc3c2)c1Cl` (stereo not shown) [Compound 352, 4-((2-((1H-benzo[d][1,2,3]triazol-5-yl)methyl)-3-oxoisoindolin-1-yl)methyl)-5-chloro-1-methyl-1H-pyrazole-3-carbonitrile]: the EC50 in assay [1] (setting [3]) and in assay [2] (setting [4]) was less than 0.5 µM each time. Besides, in assay [1] (setting [3]), the maximal fold induction was more than 1.5. In addition, the “Enzymatic Emax” value in assay [2] is recorded as “A (A>3)”.
Regarding `Cn1ncc(Cl)c1CC1c2ccc(Cl)cc2C(=O)N1Cc1ccc2[nH]nnc2c1` (stereo not shown) [Compound 343, 2-((1H-benzo[d][1,2,3]triazol-5-yl)methyl)-6-chloro-3-((4-chloro-1-methyl-1H-pyrazol-5-yl)methyl)isoindolin-1-one], the EC50 in assay [1] (setting [3]) and in assay [2] (setting [4]) was less than 0.5 µM each time. The maximal fold induction in assay [1] (setting [3]) is more than 1.5. Besides, the “Enzymatic Emax” value in assay [2] was “A (A>3)”.
With `N#Cc1ccc2c(c1)C(Cc1c(Cl)ccnc1C#N)N(Cc1ccc3[nH]c(=O)oc3c1)C2=O` (stereo not shown) [Compound 276, 3-((4-chloro-2-cyanopyridin-3-yl)methyl)-1-oxo-2-((2-oxo-2,3-dihydrobenzo[d]oxazol-6-yl)methyl)isoindoline-5-carbonitrile], in assay [1] (setting [5]), the EC50 was less than 0.5 µM and the maximal fold induction is more than 1.5. For the same compound, the EC50 in assay [2] (setting [6]) was less than 0.5 µM. In assay [2], the “Enzymatic Emax” value was “A (A>3)”.
As to `O=C1c2ccccc2C(Cc2nn(C3CNC3)cc2Cl)N1Cc1ccc2[nH]nnc2c1` (stereo not shown) [Compound 413, 2-((1H-benzo[d][1,2,3]triazol-5-yl)methyl)-3-((1-(azetidin-3-yl)-4-chloro-1H-pyrazol-3-yl)methyl)isoindolin-1-one], in assay [1] (setting [3]), the EC50 fell in the range of 0.5 to 5 µM and the maximal fold induction is more than 1.5. For the same compound, the EC50 in assay [2] (setting [4]) was less than 0.5 µM. Also, the “Enzymatic Emax” value in assay [2] is on record as “B (3≥B>2)”.
Take `Cc1cccc2c1C(=O)N(Cc1ccc(O)cc1)C2=O` [Compound 295, 2-(4-hydroxybenzyl)-4-methylisoindoline-1,3-dione]: in assay [1] (setting [5]), the EC50 was 0.5 to 5 µM and the maximal fold induction lay in the range of 1.2 to 1.5. Moreover, the EC50 in assay [2] (setting [6]) lay in the range of 0.5 to 5 µM. Moreover, in assay [2], the “Enzymatic Emax” value was “C (2≥C)”.
In the case of `C[C@H]1c2cc(C#N)ccc2C(=O)N1Cc1ccc2[nH]c(=O)oc2c1` (single isomer, unassigned) [Compound 186], in assay [1] (setting [5]), the concentration giving a half-maximal response (EC50) is 0.5 to 5 µM and the maximal fold induction is more than 1.5. In addition, the EC50 in assay [2] (setting [6]) is not below 5 µM. Besides, the “Enzymatic Emax” value in assay [2] was “B (3≥B>2)”.
For `N#CCC1c2ccccc2C(=O)N1Cc1ccc(O)cc1` (stereo not shown) [Compound 27, 2-(2-(4-hydroxybenzyl)-3-oxoisoindolin-1-yl)acetonitrile], in that order: 5 to 50 µM, more than 1.5, not below 5 µM and “A (A>3)”.
As for `Cn1ncc(Cl)c1CC1c2ccccc2C(=O)N1CC1CC1C(N)=O` (stereo not shown) [Compound 582, 2-((1-((4-chloro-1-methyl-1H-pyrazol-5-yl)methyl)-3-oxoisoindolin-2-yl)methyl)cyclopropane-1-carboxamide], the EC50 in assay [1] (setting [3]) was 5 to 50 µM; in assay [2] (setting [4]), not below 5 µM. Further, the maximal fold induction in assay [1] (setting [3]) lay within 1.2 to 1.5. The “Enzymatic Emax” value in assay [2] is “C (2≥C)”.
`COc1ccc(CN2C(=O)c3ccccc3C2Cc2ncccc2Br)cc1` (stereo not shown) [Compound 415, 3-((3-bromopyridin-2-yl)methyl)-2-(4-methoxybenzyl)isoindolin-1-one]: in assay [1] (setting [3]), the EC50 was less than 0.5 µM and the maximal fold induction lay in the range of 1.2 to 1.5. Further, the EC50 in assay [2] (setting [4]) fell in the range of 0.5 to 5 µM. The “Enzymatic Emax” value in assay [2] was “B (3≥B>2)”.
The matching figures for `Cn1ncc(Cl)c1CC1c2ccccc2C(=O)N1C[C@H]1C[C@@]2(CNC(=O)O2)C1` (stereo partly shown) [Compound 483, (2r,4r)-2-((1-((4-chloro-1-methyl-1H-pyrazol-5-yl)methyl)-3-oxoisoindolin-2-yl)methyl)-5-oxa-7-azaspiro[3.4]octan-6-one]: less than 0.5 µM, 1.2 to 1.5, 0.5 to 5 µM and “B (3≥B>2)”.
The matching figures for `COc1ccc(CN2C(=O)c3ccc(C4CC4)cc3C2Cc2c(C)ncnc2C#N)cc1` (stereo not shown) [Compound 638, 5-((6-cyclopropyl-2-(4-methoxybenzyl)-3-oxoisoindolin-1-yl)methyl)-6-methylpyrimidine-4-carbonitrile]: less than 0.5 µM, 1.2 to 1.5, 0.5 to 5 µM and “A (A>3)”.
Turning to `Cc1ocnc1CC1c2ccccc2C(=O)N1Cc1ccc2[nH]c(=O)oc2c1` (stereo not shown) [Compound 231, 6-((1-((5-methyloxazol-4-yl)methyl)-3-oxoisoindolin-2-yl)methyl)benzo[d]oxazol-2(3H)-one], the EC50 in assay [1] (setting [5]) was 0.5 to 5 µM; in assay [2] (setting [6]) it was not below 5 µM. Moreover, the maximal fold induction in assay [1] (setting [5]) was more than 1.5. Besides, the “Enzymatic Emax” value in assay [2] is given as “A (A>3)”.
On to `CC1c2cc(CN3CCC3)ccc2C(=O)N1Cc1ccc2[nH]c(=O)oc2c1` (single isomer, unassigned) [Compound 274], for which, in assay [1] (setting [5]), the EC50 lay in the range of 5 to 50 µM and the maximal fold induction was in the range of 1.2 to 1.5. For the same compound, the EC50 in assay [2] (setting [6]) was not below 5 µM. Besides, in assay [2], the “Enzymatic Emax” value is listed as “B (3≥B>2)”.
For `C[C@H]1c2ccccc2C(=O)N1Cc1ccc2[nH]c(=O)oc2c1` [Compound 56, (S)-6-((1-methyl-3-oxoisoindolin-2-yl)methyl)benzo[d]oxazol-2(3H)-one], in assay [1] (setting [5]), the EC50 lay in the range of 0.5 to 5 µM and the maximal fold induction is more than 1.5. Further, in assay [2] (setting [6]), the EC50 is not below 5 µM. Further, the “Enzymatic Emax” value in assay [2] is on record as “A (A>3)”.
For `Cn1ncc(Cl)c1C[C@H]1c2ccccc2C(=O)N1C/C=C/c1c[nH]nn1` [Compound 312, (S,E)-2-(3-(1H-1,2,3-triazol-4-yl)allyl)-3-((4-chloro-1-methyl-1H-pyrazol-5-yl)methyl) isoindolin-1-one], in that order: less than 0.5 µM, more than 1.5, less than 0.5 µM and “B (3≥B>2)”.
For `O=C1c2ccc(N3CCOCC3)cc2CN1Cc1ccc2[nH]c(=O)oc2c1` [Compound 47, 6-((5-morpholino-1-oxoisoindolin-2-yl)methyl)benzo[d]oxazol-2(3H)-one], in that order: 5 to 50 µM, more than 1.5, not below 5 µM and “B (3≥B>2)”.

For the origin of these results see patent US20260078130A1, “NAMPT MODULATORS, PREPARATIONS, AND USES THEREOF” (SIRONAX LTD., priority 2022, published 2026).
